Measured values published in US20210356472A1, “METHODS AND COMPOSITIONS FOR DETECTION AND VISUALIZATION OF OXIDATIVE STRESS-INDUCED CARBONYLATION IN CELLS” (The Research Foundation for The State University of New York, priority 2020, published 2021).

Tests used:
A549 cells = experiment: Detection of carbonylation in live cells with hydrazide fluorophores; type: cell-based
Experimental: At the end of the incubation period with the OSA or vehicle, 1 μL of 2 mM fluorophore (final concentrations: fluorophore=10 μM; DMSO=0.5%, v/v) is added to one corner of each well, taking care not to touch the bottom of the well with the pipet tip, and mixed well, by gently moving the chambered coverglass in a circular motion (clockwise as well as counter-clockwise). The coverglass is then returned to the cell culture incubator and incubated for 30-45 min. The difference in fluorescence between the control and the sample may be affected by the time of incubation with the fluorophore and the cell line. The incubation time is adjusted based on the cell line and oxidant used. The medium is discarded and 500 μL fresh medium added to each well. The coverglass is returned to the cell culture incubator for 3 min. The washing step is repeated two more times. The final wash medium is discarded, and 200 μL of fresh medium added, and the cells imaged by, e.g., confocal microscopy.
A549 cells were treated with vehicle (0.1% DMSO, v/v) or 100 μM menadione for 1 h, followed by 10 μM DCCH, BODIPYH, TxRH or TFCH for 30 min. The medium was discarded, and fresh medium was added to the cells and allowed to incubate for 5 min. After an additional round of medium change, the cells were imaged live using a confocal laser scanning microscope.
FIGS. 9A-9C show quantitative analysis of carbonyls in live cells in high throughput platform: A549 cells grown in standard media (control) or serum free media (serum starved) for ˜24 h were allowed to react with 10 μM hydrazide fluorophores for 1 h. Cells were washed and the emission of respective samples were recorded. The excitation (ex) and emission (em) wavelengths used are as follows: (FIG. 9A) DCCH (ex: 405 nm; em: 475 nm); (FIG. 9B) BODIPYH (ex: 488 nm; em: 530 nm); (FIG. 9C) TxRH (ex: 543 nm; em: 620 nm). Fluorescence in each sample was normalized to cell density. The graphs represent fluorescence of the serum starved samples relative to the control samples.
The cells were washed and imaged live using a confocal microscope. […]

[1] = Absorption and emission spectra of hydrazide fluorophores and their hydrazones with propanal; type: physicochemical; conditions: 10 mM PB, pH 7 containing 0.5% DMSO (v/v); for Hydrazide + propanal Abs max / Hydrazide + propanal Em max: corresponding hydrazone with propanal
Experimental: FIGS. 15A-15F show absorption (top) and emission (bottom) spectra of (FIGS. 15A, 15B) DCCH, (FIGS. 15C, 15D) BODIPYH, and (FIGS. 15E, 15F) TxRH and their corresponding hydrazones with propanal in 10 mM PB, pH 7 containing 0.5% DMSO (v/v). The excitation wavelengths used for obtaining the emission spectra are as follows: DCCH (ex: 405 nm), BODIPYH (ex: 450 nm), TxRH (543 nm). The arrow in the absorption spectra denotes the wavelength of the excitation laser used in the microscopy experiments.

lung cancer (A549) cells = experiment: Cellular influx and efflux of TFCH in live A549 cells; type: cell-based
Experimental: (§1) Oxidized BSA was used as a model carbonylated biomolecule and TFCH's ability to detect it in an isolated system was tested. […] Next, the compatibility of TFCH for cell-based assays was established using lung cancer (A549) cells as a model cell line. TFCH's influx and efflux were achieved readily (<5 min) (FIGS. 21D and 21E). […] Importantly, given the turn-up property of the fluorophore, it was possible to identify carbonyls in live cells in the presence of unreacted fluorophores by a one-step high content screening (HCS)-compatible assay. Low concentration of the dye (2 µM) can detect carbonyls induced by serum starvation in live cells within 30 min (FIG. 22C). This single-step (no wash) assay format may be particularly suitable for screening molecules that have a propensity to induce cell detachment. Alternatively, excess fluorophore can be removed and the cells can be either imaged live (FIGS. 21D and 21E) or can be fixed and preserved for analysis at a later time Indeed, a similar spatial distribution and increase in carbonylation due to serum starvation was detected in both live (FIGS. 5, 19B) and fixed cells (fixed after fluorescent labeling in live cells). […] See also, (Vemula, Ni, & Fedorova, 2015).
(§2) FIGS. 21A-21B, Limit of detection (LOD) of TFCZ (hydrazone of TFCH and propanal) in A549 cell lysate. […] Emission spectra of the lysates were recorded by exciting the samples at 372 nm.

[2] = Reaction of TFCH with biomolecule ketones, cell-free systems versus living cells
Excerpt: It is believed that, in vivo, small molecules such as amino acids are involved in catalysis of the reaction.

oxidized BSA = oxidized BSA (Bos taurus, UniProt P02769); experiment: Fluorescent labelling of oxidized BSA (SDS-PAGE); type: biochemical; conditions: isolated system, oxidized BSA as model carbonylated biomolecule
Experimental: as §1, §2

[3] = Fluorescence quantum yield; type: physicochemical; conditions: in water; 'believed to have'
Excerpt: The fluorescence “quantum yield” (φ) is the ratio of the number of photons emitted to the number absorbed. The term fluorescence quantum yield (φ) is a measure of the efficiency of photon emission through fluorescence, which is the loss of energy by a substance that has absorbed light via emission of a photon. In other words, the fluorescence quantum yield gives the probability of the excited state being deactivated by fluorescence rather than by another, non-radiative mechanism such as internal conversion or vibrational relaxation (non-radiative loss of energy as heat to the surroundings). The fluorescence intensity (F) is proportional to the amount of light absorbed, F=φ(Io-I), where lo is the intensity of the incident light and l is the intensity transmitted. […] When the concentration of the fluorescent compound is low, the fluorescence intensity is given by the equation: […].
TFCH is believed to have a quantum yield of >0.1 in water. […] “Solvent effect on absolute fluorescence quantum yield of rhodamine 6G determined using transient thermal lens technique.” Modern physics letters B 13, no. […] “Fluorescence lifetime of acridine in water-organic solvent mixtures.” Bulletin of the Chemical Society of Japan 42, no. […]

[4] = Photochemical comparison of TFCH with BzCH; type: physicochemical

oxidized BSA, sequence (P02769 25-607): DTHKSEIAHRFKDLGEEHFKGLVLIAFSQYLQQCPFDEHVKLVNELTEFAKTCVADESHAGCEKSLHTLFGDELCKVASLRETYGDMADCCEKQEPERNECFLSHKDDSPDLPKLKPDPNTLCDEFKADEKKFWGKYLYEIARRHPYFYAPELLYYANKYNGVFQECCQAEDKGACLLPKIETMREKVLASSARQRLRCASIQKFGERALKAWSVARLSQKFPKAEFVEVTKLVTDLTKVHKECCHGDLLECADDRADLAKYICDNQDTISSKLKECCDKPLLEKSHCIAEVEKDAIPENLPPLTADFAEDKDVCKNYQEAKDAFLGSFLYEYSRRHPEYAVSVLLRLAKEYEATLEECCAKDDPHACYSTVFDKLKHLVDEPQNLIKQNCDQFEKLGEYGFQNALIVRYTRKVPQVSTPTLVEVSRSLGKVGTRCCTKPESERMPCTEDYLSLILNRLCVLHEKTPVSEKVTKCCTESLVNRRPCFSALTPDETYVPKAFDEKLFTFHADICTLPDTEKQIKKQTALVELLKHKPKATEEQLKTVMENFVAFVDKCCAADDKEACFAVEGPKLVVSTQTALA

SMILES | suitability as optical probe for carbonylation in live cells (A549 cells) | Hydrazide + propanal Abs max [1] [nm] | Hydrazide + propanal Em max [1] [nm] | Hydrazide Abs max [1] [nm] | Hydrazide Em max [1] [nm] | influx and efflux time (lung cancer (A549) cells) [min] | reaction with biomolecule ketones in cell-free systems relative to living cells [2] | labelling of oxidized BSA (oxidized BSA) | quantum yield [3] | photostability compared with BzCH [4] | absorption at 405 nm compared with BzCH ([4]; 405 nm)
Cc1cc(C)n2c1C=C1C=CC(CCC(=O)NN)=[N+]1[B-]2(F)F [BODIPYH] | found suitable as optical probes for carbonylation in live cells | 503 | 510 | 503 | 510 | – | – | – | – | – | –
CCN(CC)c1ccc2cc(C(=O)NN)c(=O)oc2c1 [DCCH, 7-(diethylamino)coumarin-3-carbohydrazide] | found suitable as optical probes for carbonylation in live cells | 439 | 481 | 429 | 479 | – | – | – | – | – | –
NNc1ccc2c(C(F)(F)F)cc(=O)oc2c1 [TFCH, 4-Trifluoromethyl-7-hydrazinyl-2H-chromen-2-one] | – | – | – | – | – | < 5 | eight hundred times slower | able to fluorescently label oxidized BSA and form a stable conjugate | > 0.1 | more photostable than BzCH | higher absorption at 405 nm than the BzCH
NNS(=O)(=O)c1ccc(C2=c3cc4c5c(c3Oc3c2cc2c6c3CCCN6CCC2)CCC[N+]=5CCC4)c(S(=O)(=O)[O-])c1 [TxRH] | found suitable as optical probes for carbonylation in live cells | 589 | 607 | 589 | 607 | – | – | – | – | – | –
